Reference: US20110118209A1 (priority 2006, published 2011)
Like-named read-outs stand apart in the source and are kept apart here.

Key:
[1] = test system: human lox-IMVI melanoma; type: in vivo
[2] = test system: mice; details: 75 mg/kg, either sex
[3] = test system: L1210/CPA; type: in vivo, mice
[4] = test system: L1210/0; type: in vivo, mice
[5] = test system: mice; assay: Tolerability of IPM in tumor-bearing mice (Example 4 studies); type: in vivo; details: IP and IV treatment
Description: This example describes the evaluation of IPM against several different cancer cell lines implanted in mice.

[6] = test system: B16 Melanoma; parameters: species or system mice; details: mouse, in vivo
[7] = test system: P388/CPA; type: in vivo, mice
[8] = in vivo; details: rat, po
[9] = test system: primary rabbit kidney proximal tubule (RPT) cells
[10] = test system: P388/0; type: in vivo, mice
[11] = 200 mg/kg IP day 2 only, male CDF1 mice
[12] = 175 mg/kg IP day 1 only, female CDF1 mice
[13] = 265 mg/kg IP day 1 only, female CDF1 mice

O=P(O)(NCCCl)NCCCl [IPM, N,N′-di(2-chloroethyl)phosphorodiamidic acid]
Median Day of Death ([1]; in vivo): 29.0 days | microscopic findings [2]: No obvious treatment-related microscopic findings | Net log10 Reduction in tumor burden after therapy ([3]; mouse, in vivo): 7 log10 | Net log10 Reduction in tumor burden after therapy ([4]; mouse, in vivo): 8 log10 | tolerability [5]: tolerated intraperitoneal (IP) and intravenous (IV) treatment with IPM well | efficacy compared with CPA and Ifos [6]: slightly inferior to CPA but better than Ifos | Net log10 Reduction in tumor burden after therapy ([7]; mouse, in vivo): 7 log10 | LD50 [8]: 1400 to 3500 mg/kg

O=CCCl [chloroacetaldehyde]
concentration of complete inhibition ([9]; rabbit): 75 µM

O=P1(NCCCl)OCCCN1CCCl (stereo not shown) [Ifos, Ifosfamide]
Net log10 Reduction in tumor burden after therapy ([4]; mouse, in vivo): 8 log10 | Net log10 Reduction in tumor burden after therapy ([7]; mouse, in vivo): 4 log10 | Net log10 Reduction in tumor burden after therapy ([10]; mouse, in vivo): 7 log10

C=CC=O [acrolein]
LD50 ([9]; rabbit): 80 µM

O=P1(NCCCl)OCCC(O)N1CCCl (stereo not shown) [4-hydroxyifosfamide]
cell death [9]: extensive cell death

O=P1(N(CCCl)CCCl)NCCCO1 (stereo not shown) [CPA, cyclophosphamide]
Median Day of Death ([1]; 40 mg/kg/dose IV Q1 D × 5, nude mice): 42.0 days | Net log10 Reduction in tumor burden after therapy [3, 11]: 4 log10 | Net log10 Reduction in tumor burden after therapy [4, 11]: 7 log10 | Net log10 Reduction in tumor burden after therapy [7, 12]: 3 log10 | Net log10 Reduction in tumor burden after therapy [7, 13]: 3 log10 | Net log10 Reduction in tumor burden after therapy [10, 12]: 7 log10 | Net log10 Reduction in tumor burden after therapy [10, 13]: 7 log10

O=P1(NCCCl)OCCC(OO)N1CCCl (stereo not shown) [HIFA, 4-hydroperoxyifosfamide]
effect on viability [9]: did not significantly affect viability
